This note sets out measurements from patent US12559529B2, “NPY2 receptor agonists” (Boehringer Ingelheim International GmbH, priority 2019, dated 2026).

Experiment [1] concerns the target T1, Human Neuropeptide Y2 Receptor (Homo sapiens, UniProt P49146).
T1 construct: purchased CHEMICON HTS066M
T1 sequence (P49146 1-381): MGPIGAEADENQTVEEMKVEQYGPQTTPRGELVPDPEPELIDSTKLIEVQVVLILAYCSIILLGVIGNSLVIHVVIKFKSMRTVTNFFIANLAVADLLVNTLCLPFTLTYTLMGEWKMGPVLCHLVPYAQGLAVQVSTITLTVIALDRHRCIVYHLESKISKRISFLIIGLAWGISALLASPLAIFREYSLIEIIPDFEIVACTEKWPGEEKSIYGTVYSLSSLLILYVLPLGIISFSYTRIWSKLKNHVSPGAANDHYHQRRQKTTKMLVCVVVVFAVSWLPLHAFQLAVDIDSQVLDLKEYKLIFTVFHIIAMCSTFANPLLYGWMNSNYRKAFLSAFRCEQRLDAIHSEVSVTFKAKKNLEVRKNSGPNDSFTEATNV
Nature of the experiment: Radioligand binding competition assay (RLB). To be noted: Table 3; human 125I-PYY (1-36) 0.02 nM, Y2 receptor membranes; read-out: Ki. Put shortly:
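Membranes from cells expressing human Y2 receptor (0.5 μg protein/well) were incubated with radioligand and serially diluted peptides in 50 mM HEPES, 5 mM MgCl2, 1 mM CaCl2, 0.2% ovalbumin, pH 7.4, for 2 h at room temperature with shaking. Bound radioactivity was collected by filtration and counted; IC50 from sigmoidal nonlinear regression.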

The next experiment addresses T2, human NPY5 receptor (Homo sapiens, UniProt Q15761).
T2 sequence (Q15761 1-445): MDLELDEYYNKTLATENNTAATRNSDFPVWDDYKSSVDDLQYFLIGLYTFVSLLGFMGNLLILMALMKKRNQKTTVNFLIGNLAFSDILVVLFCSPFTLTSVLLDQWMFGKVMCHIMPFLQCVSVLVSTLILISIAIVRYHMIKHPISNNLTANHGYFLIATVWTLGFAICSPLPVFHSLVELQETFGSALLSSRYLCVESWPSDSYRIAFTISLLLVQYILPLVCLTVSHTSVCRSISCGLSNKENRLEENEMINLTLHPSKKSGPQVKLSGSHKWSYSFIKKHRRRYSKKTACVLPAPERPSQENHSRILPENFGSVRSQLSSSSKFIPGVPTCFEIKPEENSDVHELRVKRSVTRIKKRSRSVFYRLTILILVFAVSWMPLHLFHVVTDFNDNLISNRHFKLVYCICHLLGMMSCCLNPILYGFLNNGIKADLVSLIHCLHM
Nature of the experiment: HTRF cAMP Gi assay, hY5R. (In TR-FRET formats the signal depends on donor and acceptor labels being close together.)

For another experiment, the target named is T3, human NPY2 receptor (Homo sapiens, UniProt P49146).
T3 sequence (P49146 1-381): T1 sequence (P49146 1-381)
As to the kind of experiment: HTRF cAMP Gi assay, hY2R.

The next experiment addresses T4, human NPY4 receptor (Homo sapiens, UniProt P50391).
T4 construct: expressed in transfected cells; host or cells: CHO-K1
Nature of the experiment: HTRF cAMP Gi assay, hY4R. The format is cell-based. The following applies: Table 4; CHO-K1 cells.

For the next experiment, the system named is normal NMRI mice. Nature of the experiment: Effect on acute food intake in normal NMRI mice. The following applies: male NMRI mice, 10 nmol/kg subcutaneously once. Type of experiment: in vivo. Put shortly:
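Male NMRI mice acclimatized in an HM-2 real-time food intake monitoring system, fasted 6 h before dark phase. Single subcutaneous dose of 10 nmol/kg peptide given 1 h before dark; n=7-8. Food intake expressed as % of vehicle group (50 mM phosphate pH7, 5% Mannitol).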

A further experiment has as its target T5, human NPY1 receptor (Homo sapiens, UniProt P25929).
T5 construct: expressed in transfected cells; host or cells: CHO-K1
T5 sequence (P25929 1-384): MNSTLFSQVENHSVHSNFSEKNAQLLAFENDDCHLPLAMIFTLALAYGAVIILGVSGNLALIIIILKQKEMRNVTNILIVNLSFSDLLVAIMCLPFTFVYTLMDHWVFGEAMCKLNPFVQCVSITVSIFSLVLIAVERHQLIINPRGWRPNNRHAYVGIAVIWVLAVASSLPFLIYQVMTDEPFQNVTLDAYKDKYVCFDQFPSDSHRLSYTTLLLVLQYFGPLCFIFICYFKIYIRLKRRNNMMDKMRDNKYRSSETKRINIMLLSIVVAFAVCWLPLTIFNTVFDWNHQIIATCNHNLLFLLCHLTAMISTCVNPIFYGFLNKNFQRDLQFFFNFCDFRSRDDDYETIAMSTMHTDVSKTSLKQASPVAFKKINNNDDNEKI
Nature of the experiment: HTRF cAMP Gi assay, hY1R. Type of experiment: cell-based. The following applies: Table 4; CHO-K1 cells.

The term Ki denotes a dissociation constant, usually derived from enzyme kinetics or from competition with a known ligand. The term EC50 denotes the midpoint of the concentration-response curve. Low values mean greater potency, high ones weaker potency.

T4 sequence (P50391 whole entry): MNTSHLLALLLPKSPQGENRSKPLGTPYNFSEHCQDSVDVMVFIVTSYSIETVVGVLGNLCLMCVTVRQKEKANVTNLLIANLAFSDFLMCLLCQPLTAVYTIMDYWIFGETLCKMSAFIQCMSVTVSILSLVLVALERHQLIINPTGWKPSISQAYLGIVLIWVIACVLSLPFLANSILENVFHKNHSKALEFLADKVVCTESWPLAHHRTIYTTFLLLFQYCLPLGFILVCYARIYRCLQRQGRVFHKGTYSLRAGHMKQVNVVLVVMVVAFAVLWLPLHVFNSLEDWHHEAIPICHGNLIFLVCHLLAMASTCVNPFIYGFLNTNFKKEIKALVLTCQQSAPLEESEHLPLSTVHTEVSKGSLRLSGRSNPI
Protocol for human NPY2 receptor: Briefly, the production of intracellular cAMP will generate a competition between unlabeled cAMP and exogenously added d2-cAMP for anti-cAMP antibodies conjugated to cryptate. CHO-K1 cells stably expressing the human NPY1, NPY2, NPY4 and NPY5 receptors were used with the cells brought to life from a frozen stock immediately before assay performance. 2000 cells per well were applied for all four NPY receptor subtype assays. A 384-well format was used applying a total volume of 20 μl using 5 μl cells, 2.5 μl peptide agonist, 2.5 μl forskolin and 5 μl of each of the fluorophores. […] Concentration-response evaluation of compounds was performed with 11 concentrations of agonist peptides (covering 3 decades). EC50 values were calculated by nonlinear regression using sigmoid concentration-response with variable slope.
Description for human NPY4 receptor: (§1) The Homogenous Time Resolved fluorescence (HTRF) technology optimized for Gi coupled receptors has thoroughly been described in Cisbio cAMP Gi kit manual. Briefly, the production of intracellular cAMP will generate a competition between unlabeled cAMP and exogenously added d2-cAMP for anti-cAMP antibodies conjugated to cryptate. CHO-K1 cells stably expressing the human NPY1, NPY2, NPY4 and NPY5 receptors were used with the cells brought to life from a frozen stock immediately before assay performance. 2000 cells per well were applied for all four NPY receptor subtype assays. A 384-well format was used applying a total volume of 20 μl using 5 μl cells, 2.5 μl peptide agonist, 2.5 μl forskolin and 5 μl of each of the fluorophores. […] Concentration-response evaluation of compounds was performed with 11 concentrations of agonist peptides (covering 3 decades). EC50 values were calculated by nonlinear regression using sigmoid concentration-response with variable slope.
Description for human NPY5 receptor: as §1

For the molecule `CC(C)CC(=O)N[C@@H](C)C(=O)N1CCC[C@H]1C(=O)N[C@@H](CCC(=O)O)C(=O)N[C@@H](CCCCNC(=O)COCCOCCNC(=O)COCCOCCNC(=O)CC[C@H](NC(=O)CCCCCCCCCCCCCCCCC(=O)O)C(=O)O)C(=O)N1CCC[C@H]1C(=O)N[C@@H](CCC(=O)O)C(=O)N[C@@H](CCC(=O)O)C(=O)N[C@@H](CC(=O)O)C(=O)N[C@@H](C)C(=O)N[C@@H](CCC(=O)O)C(=O)N1CCC[C@H]1C(=O)N[C@@H](CCC(=O)O)C(=O)N[C@@H](CCC(=O)O)C(=O)N[C@@H](CC(C)C)C(=O)N[C@@H](CCC(N)=O)C(=O)N[C@@H](CCC(=O)O)C(=O)N[C@@H](Cc1ccc(O)cc1)C(=O)N[C@@H](Cc1ccc(O)cc1)C(=O)N[C@H](C(=O)N[C@@H](CO)C(=O)N[C@@H](CC(C)C)C(=O)N[C@@H](CCCNC(=N)N)C(=O)N[C@@H](Cc1c[nH]cn1)C(=O)N[C@@H](Cc1ccc(O)cc1)C(=O)N[C@@H](Cc1ccc(O)cc1)C(=O)N[C@@H](CC(N)=O)C(=O)N[C@@H](Cc1c[nH]c2ccccc12)C(=O)N[C@@H](CC(C)C)C(=O)N[C@H](C(=O)N[C@@H](CCCNC(=N)N)C(=O)N[C@@H](CCC(N)=O)C(=O)N[C@@H](CCCNC(=N)N)C(=O)N[C@@H](Cc1ccc(O)cc1)C(N)=O)[C@@H](C)O)C(C)C` [Compound 105, N{alpha-4}-(3-methylbutanoyl)-N{epsilon-7}-[2-(2-{2-[2-(2-{2-[(4S)-4-carboxy-4-(17-carboxyheptadecanamido)butanamido]ethoxy}ethoxy)acetamido]ethoxy}ethoxy)acetamido]-[4A,7K,9E,13E,18Q,19E,22V,28Y,30W,31L]hPYY (4-36)], the inhibition constant (Ki) in experiment [1] turned out to be 6.94 nM. Moreover, the EC50 at human NPY5 receptor is over 5000 nM; at human NPY2 receptor, 0.284 nM; on human NPY4 receptor, over 5000 nM; at human NPY1 receptor, over 5000 nM. Further, the “Acute Food Intake 24 h [% vehicle]” value in the experiment on normal NMRI mice is reported as 72 % vehicle.

For `CC(C)CC(=O)N[C@@H](C)C(=O)N1CCC[C@H]1C(=O)N[C@@H](CCC(=O)O)C(=O)N[C@@H](CCCCNC(=O)COCCOCCNC(=O)COCCOCCNC(=O)CC[C@H](NC(=O)CCCCCCCCCCCCCCCCC(=O)O)C(=O)O)C(=O)N1CCC[C@H]1C(=O)N[C@@H](CCC(=O)O)C(=O)N[C@@H](CCC(=O)O)C(=O)N[C@@H](CC(=O)O)C(=O)N[C@@H](C)C(=O)N[C@@H](CO)C(=O)N[C@@H](CCC(=O)O)C(=O)N[C@@H](CCC(=O)O)C(=O)N[C@@H](CCC(=O)O)C(=O)N[C@@H](CC(C)C)C(=O)N[C@@H](CCC(N)=O)C(=O)N[C@@H](CCC(=O)O)C(=O)N[C@@H](Cc1ccc(O)cc1)C(=O)N[C@@H](Cc1ccc(O)cc1)C(=O)N[C@H](C(=O)N[C@@H](CO)C(=O)N[C@@H](CC(C)C)C(=O)N[C@@H](CCCNC(=N)N)C(=O)N[C@@H](Cc1c[nH]cn1)C(=O)N[C@@H](Cc1ccc(O)cc1)C(=O)N[C@@H](Cc1ccc(O)cc1)C(=O)N[C@@H](CC(N)=O)C(=O)N[C@@H](Cc1c[nH]c2ccccc12)C(=O)N[C@@H](CC(C)C)C(=O)N[C@H](C(=O)N[C@@H](CCCNC(=N)N)C(=O)N[C@@H](CCC(N)=O)C(=O)N[C@@H](CCCNC(=N)N)C(=O)N[C@@H](Cc1ccc(O)cc1)C(N)=O)[C@@H](C)O)C(C)C` [Compound 164, N{alpha-4}-(3-methylbutanoyl)-N{epsilon-7}-[2-(2-{2-[2-(2-{2-[(4S)-4-carboxy-4-(17-carboxyheptadecanamido)butanamido]ethoxy}ethoxy)acetamido]ethoxy}ethoxy)acetamido]-[4A,7K,9E,14E,18Q,19E,22V,28Y,30W,31L]hPYY (4-36)], the Ki in experiment [1] came to 4.33 nM. The half-maximal effective concentration (EC50) at human NPY5 receptor was over 5000 nM; at human NPY2 receptor, 0.235 nM; at human NPY4 receptor it was over 5000 nM; at human NPY1 receptor, over 5000 nM. Also, the “Acute Food Intake 24 h [% vehicle]” value with normal NMRI mice was determined as 64 % vehicle.

In the case of `CC(C)CC(=O)N[C@@H](C)C(=O)N1CCC[C@H]1C(=O)N[C@@H](CCC(=O)O)C(=O)N[C@@H](CCCCNC(=O)COCCOCCNC(=O)COCCOCCNC(=O)CC[C@H](NC(=O)CCCCCCCCCCCCCCCCC(=O)O)C(=O)O)C(=O)N1CCC[C@H]1C(=O)N[C@@H](CCC(=O)O)C(=O)N[C@@H](CCC(=O)O)C(=O)N[C@@H](CC(=O)O)C(=O)N[C@@H](C)C(=O)N[C@@H](CCC(=O)O)C(=O)N1CCC[C@H]1C(=O)N[C@@H](CCC(=O)O)C(=O)N[C@@H](CCC(=O)O)C(=O)N[C@@H](CC(C)C)C(=O)N[C@@H](CCC(N)=O)C(=O)N[C@@H](CCCNC(=N)N)C(=O)N[C@@H](Cc1ccc(O)cc1)C(=O)N[C@@H](Cc1ccc(O)cc1)C(=O)N[C@H](C(=O)N[C@@H](CO)C(=O)N[C@@H](CC(C)C)C(=O)N[C@@H](CCCNC(=N)N)C(=O)N[C@@H](Cc1c[nH]cn1)C(=O)N[C@@H](Cc1ccc(O)cc1)C(=O)N[C@@H](Cc1ccc(O)cc1)C(=O)N[C@@H](CC(N)=O)C(=O)N[C@@H](Cc1c[nH]c2ccccc12)C(=O)N[C@@H](CC(C)C)C(=O)N[C@H](C(=O)N[C@@H](CCCNC(=N)N)C(=O)N[C@@H](CCC(N)=O)C(=O)N[C@@H](CCCNC(=N)N)C(=O)N[C@@H](Cc1ccc(O)cc1)C(N)=O)[C@@H](C)O)C(C)C` [Compound 188, N{alpha-4}-(3-methylbutanoyl)-N{epsilon-7}-[2-(2-{2-[2-(2-{2-[(4S)-4-carboxy-4-(17-carboxyheptadecanamido)butanamido]ethoxy}ethoxy)acetamido]ethoxy}ethoxy)acetamido]-[4A,7K,9E,13E,18Q,22V,28Y,30W,31L]hPYY (4-36)], in experiment [1], the Ki was found to be 3.09 nM. The EC50 on human NPY5 receptor was over 5000 nM; at human NPY2 receptor, 0.106 nM; at human NPY4 receptor it was over 5000 nM; on human NPY1 receptor it was over 5000 nM. For the same molecule, in the experiment with normal NMRI mice, the “Acute Food Intake 24 h [% vehicle]” value is 55 % vehicle.
